For this data set, the system named is rodent lifetime carcinogenesis bioassay, tumor incidence TD50. As to the kind of experiment: chronic cancer bioassays in animals – CPDB, compiled studies (AID 1745844).

Activity calls are given as the source filed them. The rule behind the calls is not given here.

The term TD50 denotes the 50% point of the dose-response relation for the toxic effect studied.

Regarding `C=CBr`, the TD50 runs as follows: (rat, strain Sprague-Dawley, females, inhaled, site: Zymbal's gland, lesion: squamous-cell carcinoma, dosed 81 weeks, study length 103 weeks) 2240 mg/kg/day; (rat, strain Sprague-Dawley, females, inhaled, site: liver, lesion: hepatocellular carcinoma, dosed 81 weeks, study length 103 weeks) 749 mg/kg/day; (rat, strain Sprague-Dawley, females, inhaled, site: liver, lesion: neoplastic nodule, dosed 81 weeks, study length 103 weeks) 18.9 mg/kg/day; (rat, strain Sprague-Dawley, females, inhaled, site: liver, lesion: several types, types named in the paper, dosed 81 weeks, study length 103 weeks) 433 mg/kg/day; (rat, strain Sprague-Dawley, females, inhaled, site: several sites, sites named in the paper, lesion: angiosarcoma, dosed 81 weeks, study length 103 weeks) 19.2 mg/kg/day; (rat, strain Sprague-Dawley, males, inhaled, site: Zymbal's gland, lesion: papilloma, dosed 76 weeks, study length 103 weeks) 2760 mg/kg/day. Moreover, the TD50 was 409 mg/kg/day (rat, strain Sprague-Dawley, males, inhaled, site: Zymbal's gland, lesion: squamous-cell carcinoma, dosed 76 weeks, study length 103 weeks); 387 mg/kg/day (rat, strain Sprague-Dawley, males, inhaled, site: liver, lesion: hepatocellular carcinoma, dosed 76 weeks, study length 103 weeks); 303 mg/kg/day (rat, strain Sprague-Dawley, males, inhaled, site: liver, lesion: several types, types named in the paper, dosed 76 weeks, study length 103 weeks); 17.9 mg/kg/day (rat, strain Sprague-Dawley, males, inhaled, site: several sites, sites named in the paper, lesion: angiosarcoma, dosed 76 weeks, study length 103 weeks).
Regarding `O=C(O)C1C2C=CC(C2)C1(C(=O)O)[N+](=O)[O-]` (configuration not stated), the TD50 was found to be 169 mg/kg/day (mouse, strain B6C3F1, females, in drinking water, site: any site (literature study), lesion: several types, types named in the paper, dosed 104 weeks, study length 104 weeks); 1240 mg/kg/day (mouse, strain B6C3F1, females, in drinking water, site: liver, lesion: hemangioma, dosed 104 weeks, study length 104 weeks); 3190 mg/kg/day (mouse, strain B6C3F1, females, in drinking water, site: liver, lesion: hyperplastic nodule, dosed 104 weeks, study length 104 weeks); 5650 mg/kg/day (mouse, strain B6C3F1, females, in drinking water, site: lung, lesion: papillary tumor, dosed 104 weeks, study length 104 weeks); 153 mg/kg/day (mouse, strain B6C3F1, males, in drinking water, site: any site (literature study), lesion: several types, types named in the paper, dosed 104 weeks, study length 104 weeks); 2640 mg/kg/day (mouse, strain B6C3F1, males, in drinking water, site: liver, lesion: hepatoma, dosed 104 weeks, study length 104 weeks). Also, the TD50 (mouse, strain B6C3F1, males, in drinking water, site: lung, lesion: papillary tumor, dosed 104 weeks, study length 104 weeks) turned out to be 348 mg/kg/day.
`O=[N+]([O-])c1ccc2c3c(cccc13)CC2`: the TD50 reads like this: (hamster, strain Syrian Golden, females, in feed, site: bile duct, lesion: cholangioma, dosed 26 weeks, study length 71 weeks) 354 mg/kg/day; (mouse, strain B6C3F1, females, in feed, site: any site (literature study), lesion: several types, types named in the paper, dosed 78 weeks, study length 96 weeks) 90.4 mg/kg/day; (mouse, strain B6C3F1, females, in feed, site: liver + ovary, lesion: hepatocellular carcinoma + granulosa-cell tumor + luteoma + tubular adenoma, dosed 78 weeks, study length 96 weeks) 45.3 mg/kg/day; (mouse, strain B6C3F1, females, in feed, site: liver, lesion: hepatocellular adenoma + hepatocellular carcinoma + neoplastic nodule, dosed 78 weeks, study length 96 weeks) 45.8 mg/kg/day; (mouse, strain B6C3F1, females, in feed, site: liver, lesion: hepatocellular carcinoma, dosed 78 weeks, study length 96 weeks) 45.8 mg/kg/day; (mouse, strain B6C3F1, females, in feed, site: lung, lesion: alveolar/bronchiolar adenoma + alveolar/bronchiolar carcinoma, dosed 78 weeks, study length 96 weeks) 1320 mg/kg/day. Further, the TD50 (mouse, strain B6C3F1, females, in feed, site: ovary, lesion: granulosa-cell tumor + luteoma + tubular adenoma, dosed 78 weeks, study length 96 weeks) was 217 mg/kg/day; the TD50 (mouse, strain B6C3F1, females, in feed, site: ovary, lesion: tubular adenoma, dosed 78 weeks, study length 96 weeks) is 395 mg/kg/day; the TD50 (rat, strain Fischer 344, females, in feed, site: any site (literature study), lesion: several types, types named in the paper, dosed 78 weeks, study length 101 weeks) was determined as 6.44 mg/kg/day; the TD50 (rat, strain Fischer 344, females, in feed, site: clitoral gland + ear canal + lung + mammary gland, lesion: carcinoma, NOS + carcinosarcoma + ceruminous carcinoma + squamous-cell carcinoma + alveolar/bronchiolar adenoma + alveolar/bronchi, dosed 78 weeks, study length 101 weeks) worked out at 5.98 mg/kg/day; the TD50 (rat, strain Fischer 344, females, in feed, site: clitoral gland, lesion: carcinoma, NOS, dosed 78 weeks, study length 101 weeks) was 52.2 mg/kg/day; the TD50 (rat, strain Fischer 344, females, in feed, site: ear canal, lesion: carcinosarcoma + ceruminous carcinoma + squamous-cell carcinoma, dosed 78 weeks, study length 101 weeks) was 14.9 mg/kg/day. Besides, the TD50 runs as follows: (rat, strain Fischer 344, females, in feed, site: ear canal, lesion: ceruminous carcinoma, dosed 78 weeks, study length 101 weeks) 17.4 mg/kg/day; (rat, strain Fischer 344, females, in feed, site: ear canal, lesion: squamous-cell carcinoma, dosed 78 weeks, study length 101 weeks) 90.5 mg/kg/day; (rat, strain Fischer 344, females, in feed, site: lung, lesion: alveolar/bronchiolar adenoma + alveolar/bronchiolar carcinoma, dosed 78 weeks, study length 101 weeks) 9.63 mg/kg/day; (rat, strain Fischer 344, females, in feed, site: mammary gland, lesion: adenocarcinoma, NOS + papillary cystadenocarcinoma, NOS, dosed 78 weeks, study length 101 weeks) 77.9 mg/kg/day; (rat, strain Fischer 344, females, in feed, site: mammary gland, lesion: adenocarcinoma, NOS, dosed 78 weeks, study length 101 weeks) 81.7 mg/kg/day; (rat, strain Fischer 344, males, in feed, site: any site (literature study), lesion: several types, types named in the paper, dosed 74 weeks, study length 101 weeks) 5.58 mg/kg/day. Also, the TD50 reads like this: (rat, strain Fischer 344, males, in feed, site: ear canal + lung, lesion: ceruminous carcinoma + squamous-cell carcinoma + alveolar/bronchiolar adenoma + alveolar/bronchiolar carcinoma, dosed 74 weeks, study length 101 weeks) 6.45 mg/kg/day; (rat, strain Fischer 344, males, in feed, site: ear canal, lesion: ceruminous carcinoma + squamous-cell carcinoma, dosed 74 weeks, study length 101 weeks) 7.88 mg/kg/day; (rat, strain Fischer 344, males, in feed, site: ear canal, lesion: ceruminous carcinoma, dosed 74 weeks, study length 101 weeks) 8.92 mg/kg/day; (rat, strain Fischer 344, males, in feed, site: ear canal, lesion: squamous-cell carcinoma, dosed 74 weeks, study length 101 weeks) 68.2 mg/kg/day; (rat, strain Fischer 344, males, in feed, site: kidney, lesion: tubular-cell adenoma + tubular-cell adenocarcinoma, dosed 74 weeks, study length 101 weeks) 42.9 mg/kg/day; (rat, strain Fischer 344, males, in feed, site: liver, lesion: hepatocellular adenoma + hepatocellular carcinoma + neoplastic nodule, dosed 74 weeks, study length 101 weeks) 71.4 mg/kg/day. The TD50 runs as follows: (rat, strain Fischer 344, males, in feed, site: lung, lesion: alveolar/bronchiolar adenoma + alveolar/bronchiolar carcinoma, dosed 74 weeks, study length 101 weeks) 29.9 mg/kg/day; (rat, strain Fischer 344, males, in feed, site: lung, lesion: alveolar/bronchiolar carcinoma, dosed 74 weeks, study length 101 weeks) 35.1 mg/kg/day; (rat, strain Fischer 344, males, in feed, site: thyroid gland, lesion: follicular-cell adenoma + papillary adenoma, dosed 74 weeks, study length 101 weeks) 58.5 mg/kg/day; (rat, strain Fischer 344, males, in feed, site: thyroid gland, lesion: follicular-cell carcinoma + papillary adenocarcinoma, dosed 74 weeks, study length 101 weeks) 37.7 mg/kg/day. Also, where the note is “mouse, strain B6C3F1, males, in feed, site: any site (literature study), lesion: several types, types named in the paper, dosed 78 weeks, study length 95 weeks”, the carcinogen call is “negative (inactive)”.
As for `ClCOCc1ccc(COCCl)cc1`, the TD50 (mouse, strain Ha/ICR, females, i.p., site: abdomen, lesion: sarcoma, dosed 77 weeks, study length 77 weeks) was 3.11 mg/kg/day.

The values above are taken from PubChem BioAssay AID1745844 (Carcinogenic Potency Database (CPDB), 2022).
